Measured values as given in US20060228313A1, “Method of cosmetic depigmentation care by applying at least one aurone” (Coletica, priority 2005, published 2006).

Assays:
Human tyrosinase = biological target: T1, Human tyrosinase (Homo sapiens, UniProt P14679); experiment: Inhibition of human tyrosinase in a monolayer after application of the actives on normal human melanocytes; assay type: cell-based; conditions: for Inhibition of human tyrosinase after application on normal human melanocytes, percentage inhibition: 24 hours; for Inhibition of human tyrosinase on normal human melanocytes, result in words: model of Example 15
T1 construct: Normal human melanocytes (originating from abdominal plasty) are sown in a 24-well plate; endogenous in cells; host or cells: normal human melanocytes (abdominal plasty; donors of light, brown and black phototype)
T1 sequence (P14679 19-529): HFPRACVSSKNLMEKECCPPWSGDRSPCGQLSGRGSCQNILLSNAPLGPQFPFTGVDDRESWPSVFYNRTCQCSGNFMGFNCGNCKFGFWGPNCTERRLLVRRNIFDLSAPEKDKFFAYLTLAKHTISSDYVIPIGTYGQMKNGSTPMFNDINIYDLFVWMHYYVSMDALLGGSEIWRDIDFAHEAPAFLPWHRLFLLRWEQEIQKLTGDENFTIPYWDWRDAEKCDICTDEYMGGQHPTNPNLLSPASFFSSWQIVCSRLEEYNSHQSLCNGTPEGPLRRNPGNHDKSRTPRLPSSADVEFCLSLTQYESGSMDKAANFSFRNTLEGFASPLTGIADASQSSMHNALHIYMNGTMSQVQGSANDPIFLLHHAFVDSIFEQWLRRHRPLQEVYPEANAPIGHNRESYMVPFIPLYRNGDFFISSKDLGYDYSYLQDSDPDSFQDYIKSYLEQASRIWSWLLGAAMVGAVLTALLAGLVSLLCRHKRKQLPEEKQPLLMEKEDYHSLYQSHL
Method: Normal human melanocytes (originating from abdominal plasty) are sown in a 24-well plate at the rate of 80,000 cells per well. They are cultivated up to confluence and the actives are applied for 24 hours in the culture media. After 24 hours, the media are removed and the melanocytes are picked up by mechanical action. An extraction is made by heat shock and the supernatants are then recovered and then incubated with MBTH (Sigma) and L-Dopa (Sigma). The OD at 490 nm is measured after 30 minutes, and the inhibition is of the tyrosinase is calculated by comparing the OD at 490 nm to the protein level (measured in each culture well) of the test with respect to the ratio: OD 490 nm/concentration of protein of the negative control (non-treated control). […]

normal human melanocytes [1] = experiment: Cytotoxicity on normal human melanocytes, PNPP determination; assay type: cell-based; conditions: 24 hours
Method: The cytotoxicity of the actives is studied on normal human melanocytes in a 24-well plate by a determination with PNPP(P-nitrophenyl phosphate), a substance which is converted into p-nitrophenol by the intracellular acid phosphatases of viable cells.
The absorbance of p-nitrophenol at 405 nm is directly proportional to the number of viable cells.
The actives are tested at 2 different concentrations (10^−4 M and 10^−5 M) and are added to the culture medium and are incubated at 37° C. for 24 hours. The determination with PNPP is carried out on a cell mat and the results are expressed as a percentage viability with respect to the negative control (non-treated wells).

guinea pig = experiment: Skin sensitisation potential in the guinea pig, Magnusson and Kligmann maximization test (OECD 406); assay type: in vivo; conditions: compound at 10% in a 0.5% xanthan gum
Method: (§1) Toxicology tests were carried out on the compound obtained according to Example 9 incorporated at 10% in a 0.5% xanthan gum, by an ocular evaluation in the rabbit, by the study of the absence of abnormal toxicity by single oral administration in the rat and by the study of the sensitizing power in the guinea pig.
The preparations described are subjected to the maximization test described by Magnusson and Kligmann, a protocol which is in agreement with the directive line No. 406 of the OECD.

eye of rabbits = experiment: Evaluation of the ocular irritation in the rabbit (OECD 405); assay type: in vivo; conditions: compound at 10% in a 0.5% xanthan gum, instilled pure, 0.1 ml
Method: as §1
The preparations described above were instilled pure and in one batch at the rate of 0.1 ml in the eye of three rabbits according to the method recommended by the directive of the OECD NO. 405 of Feb. 24, 1987, in relation to the study of “the acute irritant/corrosive effect on the eyes”.

in vivo = conditions: both sexes, rat, po
Method: as §1
(§2) The preparations described were administered in one batch orally at the dose of 5 g/Kg of body weight, to 5 male rats and 5 female rats according to a protocol inspired from the Directive of the OECD No. 401 of Feb. 24, 1987 and adapted to cosmetic products. The LD0 and LD50 are found to be greater than 5,000 mg/Kg. The preparations tested are therefore not classed amongst the preparations which are dangerous by ingestion.

rat = experiment: in vivo; conditions: both, po
Method: as §1, §2

normal human melanocytes [2] = system: normal human melanocytes
Text: A study is made with molecules known in the literature for their depigmenting activity. These molecules are applied to the model described in Example 15 so as to compare their efficiency with respect to the aurones is described above.

Compound	Inhibition of human tyrosinase after application on normal human melanocytes, percentage inhibition (Human tyrosinase; 10^−5M) [%]	Percentages viability on normal human melanocytes (normal human melanocytes [1]; 10^−4 M) [%]	Percentages viability on normal human melanocytes (normal human melanocytes [1]; 10^−5 M) [%]	other results
4,6-Dihydroxybenzofuran-3(2H)-one (R1=OH) and 6-Hydroxybenzofuran-3(2H)-one (R1=H) [Example 2]	9.69	103.84	126.09	–
COc1cc(OC)c2c(c1)O/C(=C\c1ccc(O)cc1)C2=O [Example 5a, (Z)-4,6-dimethoxy-2-(4′-hydroxybenzylidene)benzofuran-3(2H)-one]	–	104.53	90.87	–
CCc1ccc(/C=C2\Oc3cc(OC)cc(OC)c3C2=O)cc1 [Example 5b, (Z)-4,6-dimethoxy-2-(4′-ethylbenzylidene)benzofuran-3(2H)-one]	–	–	99.62	–
COc1cc(OC)c2c(c1)O/C(=C\c1ccc(SC)cc1)C2=O [Example 5c, (Z)-4,6-dimethoxy-2-(4′-methylthiobenzylidene)benzofuran-3(2H)-one]	–	80.08	136.13	–
COc1cc(OC)c2c(c1)O/C(=C\c1ccc(C#N)cc1)C2=O [Example 5d, (Z)-2-(4′-cyanobenzylidene)-4,6-dimethoxybenzofuran-3(2H)-one]	–	98.93	96.51	–
COc1cc(O)c2c(c1)O/C(=C\c1ccccc1)C2=O [Example 6, (Z)-2-Benzylidene-4-hydroxy-6-methoxybenzofuran-3(2H)-one]	–	–	121.56	–
COc1cc(O)c2c(c1)O/C(=C\c1ccc(SC)cc1)C2=O [Example 6c]	14.19	–	116.24	–
COc1cc(O)c2c(c1)O/C(=C\c1ccc(C#N)cc1)C2=O [Example 6d]	0	85.65	119.36	Inhibition of human tyrosinase after application on normal human melanocytes, percentage inhibition (Human tyrosinase; 10^−4M): 2.31%
CCc1ccc(/C=C2\Oc3cc(O)cc(O)c3C2=O)cc1 [Example 7b]	4.52	63.52	143.15	–
COc1ccc(/C=C2\Oc3cc(O)cc(O)c3C2=O)cc1 [Example 9, (Z)-4,6-Dihydroxy-2-(4-methoxybenzylidene)benzofuran-3(2H)-one]	–	–	–	Skin sensitisation potential (guinea pig): non-sensitizing by contact with the skin; Ocular irritation (eye of rabbits): non-irritant for the eyes; LD50 (in vivo): > 5000 mg/kg; LD0 (rat): greater than 5,000 mg/Kg
O=C1/C(=C/c2ccc(O)cc2)Oc2cc(O)cc(O)c21 [Example 9b, (Z)-4,6-Dihydroxy-2-(4′-hydroxybenzylidene)benzofuran-3(2H)-one]	–	90.31	128.39	Inhibition of human tyrosinase on normal human melanocytes, result in words (Human tyrosinase): particularly active; Inhibition of human tyrosinase on normal human melanocytes, result in words (Human tyrosinase; listed as compound 9b): high efficiency
O=C1O[C@H]([C@@H](O)CO)C(O)=C1OP(=O)(O)O [VitC PMG, reference compound]	–	–	–	Inhibition (%) of tyrosinase (Human tyrosinase; tested at 0.03%): 2.93%; Inhibition (%) of tyrosinase (Human tyrosinase; tested at 0.3%): 1.55%; Inhibition (%) of tyrosinase (Human tyrosinase; tested at 3%): −3.49%; cytotoxicity (normal human melanocytes [2]): no
